In the NIST ThermoML archive (doi:10.1021/acs.jced.8b00132):
“And” between values parts separate entries of the source, which are not always exact repeats. Equal entries are not always repeated. Numbers after ± are expanded uncertainties.

Conditions: Liquid, transient hot wire

O=C(C(F)(F)C(F)(F)F)C(F)(C(F)(F)F)C(F)(F)F [dodecafluoro-2-methylpentan-3-one]
Conditions | thermal conductivity
212.68 K, 43023 kPa | 0.08262 ± 0.0017 W/m/K
212.69 K, 34811 kPa | 0.08103 ± 0.0017 W/m/K
212.7 K, 26854 kPa | 0.0791 ± 0.0016 W/m/K
212.7 K, 34796 kPa | 0.08096 ± 0.0017 W/m/K
212.71 K, 19432 kPa | 0.07795 ± 0.0016 W/m/K
212.71 K, 26846 kPa | 0.07958 ± 0.0016 W/m/K
212.72 K, 19443 kPa | 0.07837 ± 0.0016 W/m/K
212.73 K, 12670 kPa | 0.07626 ± 0.0016 W/m/K
212.73 K, 12671 kPa | 0.0764 ± 0.0016 W/m/K
212.75 K, 5793 kPa | 0.07492 ± 0.0015 W/m/K
212.75 K, 5801 kPa | 0.0748 ± 0.0015 W/m/K
212.77 K, 172 kPa | 0.07396 ± 0.0015 W/m/K
212.79 K, 181 kPa | 0.07378 ± 0.0015 W/m/K
213.1 K, 67106 kPa | 0.08599 ± 0.0018 W/m/K and 0.08628 ± 0.0018 W/m/K
213.11 K, 60772 kPa | 0.08539 ± 0.0018 W/m/K
213.11 K, 60780 kPa | 0.08539 ± 0.0018 W/m/K
213.13 K, 52081 kPa | 0.08389 ± 0.0017 W/m/K
213.13 K, 52089 kPa | 0.08383 ± 0.0017 W/m/K
213.19 K, 43027 kPa | 0.08245 ± 0.0017 W/m/K
213.19 K, 43036 kPa | 0.08268 ± 0.0017 W/m/K
213.21 K, 34805 kPa | 0.08073 ± 0.0017 W/m/K
213.21 K, 34810 kPa | 0.08114 ± 0.0017 W/m/K
213.23 K, 26845 kPa | 0.07947 ± 0.0016 W/m/K
213.24 K, 26846 kPa | 0.07959 ± 0.0016 W/m/K
213.25 K, 19430 kPa | 0.07775 ± 0.0016 W/m/K
213.25 K, 19435 kPa | 0.0774 ± 0.0016 W/m/K
213.27 K, 12661 kPa | 0.07617 ± 0.0016 W/m/K
213.28 K, 12679 kPa | 0.0761 ± 0.0016 W/m/K
213.31 K, 5806 kPa | 0.07469 ± 0.0015 W/m/K
213.31 K, 5813 kPa | 0.07468 ± 0.0015 W/m/K
213.33 K, 173 kPa | 0.07373 ± 0.0015 W/m/K
213.33 K, 180 kPa | 0.07364 ± 0.0015 W/m/K
213.62 K, 67087 kPa | 0.08645 ± 0.0018 W/m/K
213.63 K, 67097 kPa | 0.08628 ± 0.0018 W/m/K
213.64 K, 60766 kPa | 0.08543 ± 0.0018 W/m/K
213.65 K, 60770 kPa | 0.08553 ± 0.0018 W/m/K
213.67 K, 52073 kPa | 0.08388 ± 0.0017 W/m/K
213.67 K, 52074 kPa | 0.08401 ± 0.0017 W/m/K
213.74 K, 43029 kPa | 0.08234 ± 0.0017 W/m/K
213.75 K, 43019 kPa | 0.08232 ± 0.0017 W/m/K
241.26 K, 25699 kPa | 0.0759 ± 0.0016 W/m/K
241.27 K, 25696 kPa | 0.07599 ± 0.0016 W/m/K
241.32 K, 12027 kPa | 0.07227 ± 0.0015 W/m/K and 0.07234 ± 0.0015 W/m/K
241.33 K, 18761 kPa | 0.07423 ± 0.0015 W/m/K
241.33 K, 18763 kPa | 0.0739 ± 0.0015 W/m/K
241.38 K, 209 kPa | 0.06892 ± 0.0014 W/m/K and 0.06884 ± 0.0014 W/m/K
241.39 K, 5841 kPa | 0.07049 ± 0.0014 W/m/K
241.39 K, 5844 kPa | 0.07044 ± 0.0014 W/m/K
241.62 K, 33678 kPa | 0.07765 ± 0.0016 W/m/K
241.63 K, 33700 kPa | 0.07761 ± 0.0016 W/m/K
241.64 K, 41986 kPa | 0.0795 ± 0.0016 W/m/K
241.65 K, 41994 kPa | 0.07941 ± 0.0016 W/m/K
241.65 K, 50824 kPa | 0.0813 ± 0.0017 W/m/K
241.65 K, 50825 kPa | 0.08126 ± 0.0017 W/m/K
241.66 K, 60321 kPa | 0.08312 ± 0.0017 W/m/K
241.66 K, 60336 kPa | 0.08322 ± 0.0017 W/m/K
241.67 K, 25701 kPa | 0.07567 ± 0.0016 W/m/K
241.68 K, 25692 kPa | 0.0752 ± 0.0015 W/m/K
241.68 K, 68451 kPa | 0.08416 ± 0.0017 W/m/K
241.68 K, 68475 kPa | 0.0844 ± 0.0017 W/m/K
241.74 K, 18761 kPa | 0.07395 ± 0.0015 W/m/K
241.75 K, 12028 kPa | 0.07237 ± 0.0015 W/m/K
241.75 K, 18761 kPa | 0.07396 ± 0.0015 W/m/K
241.76 K, 12022 kPa | 0.07209 ± 0.0015 W/m/K
241.83 K, 210 kPa | 0.06806 ± 0.0014 W/m/K
241.83 K, 5847 kPa | 0.06983 ± 0.0014 W/m/K
241.84 K, 211 kPa | 0.06786 ± 0.0014 W/m/K
241.84 K, 5846 kPa | 0.07 ± 0.0014 W/m/K
242.08 K, 33680 kPa | 0.0771 ± 0.0016 W/m/K
242.08 K, 60313 kPa | 0.08307 ± 0.0017 W/m/K
242.09 K, 33695 kPa | 0.07709 ± 0.0016 W/m/K
242.09 K, 41985 kPa | 0.07857 ± 0.0016 W/m/K
242.09 K, 50804 kPa | 0.081 ± 0.0017 W/m/K
242.09 K, 50825 kPa | 0.08098 ± 0.0017 W/m/K
242.1 K, 41988 kPa | 0.07839 ± 0.0016 W/m/K
242.1 K, 60314 kPa | 0.08294 ± 0.0017 W/m/K
242.1 K, 68448 kPa | 0.08374 ± 0.0017 W/m/K
242.11 K, 68433 kPa | 0.08377 ± 0.0017 W/m/K
242.14 K, 25700 kPa | 0.07474 ± 0.0015 W/m/K
242.14 K, 25703 kPa | 0.07481 ± 0.0015 W/m/K
242.23 K, 18760 kPa | 0.07343 ± 0.0015 W/m/K
242.23 K, 18761 kPa | 0.07341 ± 0.0015 W/m/K
242.24 K, 12027 kPa | 0.07149 ± 0.0015 W/m/K
242.24 K, 12030 kPa | 0.07138 ± 0.0015 W/m/K
